In patent publication US20250154152A1, “INHIBITORS OF NAEGLERIA FOWLERI” (Wisconsin Alumni Research Foundation, priority 2023, published 2025):
Like-named read-outs stand apart in the source and are kept apart here.

System: N. fowleri strain Nf69 (ATCC 30215) trophozoites
Test: Determination of EC50 values against Naegleria fowleri (growth inhibition, CellTiter Glo, 48 h)
Type: cell-based
Conditions: read-out: EC50 uM against N. fowleri
Protocol: N. fowleri strain Nf69 (ATCC 30215) trophozoites were cultured axenically. Amoeba were seeded at […] in 100 μL of the indicated medium in white TC-treated 96-well plates (Thermo Scientific Nunc Microwell 136101). Cells were seeded into Nelson's Complete Media (NCM, 0.17% liver infusion broth (BD Difco, Franklin Lakes, NJ), 0.17% glucose, 0.012% sodium chloride, 0.0136% potassium phosphate monobasic, 0.0142% sodium phosphate dibasic, 0.0004% calcium chloride, 0.0002% magnesium sulfate, 10% heat-inactivated fetal bovine serum (FBS), 1% penicillin-streptomycin) at 37° C. in 96-well tissue culture plates. Vehicle or compound at concentrations initially ranging from 20 to 0.375 μM were added to cells, followed by culture for 48 h (37° C., 5% CO2). Plates were equilibrated to rt for 15 min and CellTiter Glo reagent was added followed by orbital shaking for 2 min. After an additional incubation (rt, 10 min), luminescence was scored on a BioTek Synergy H1 microplate reader. Luminescence values were used to calculate percent cell growth inhibition (based on controls) for each concentration of compound tested. Averages of triplicates were calculated and fit to dose-response curves for the determination of EC50 values, using Prism 9.0 (GraphPad Software, San Diego, CA). […] Other controls included media alone, cells and media, and vehicle and media. For very potent compounds, concentration of reagent in the dose-response assays were reduced to provide an appropriate range for EC50 value resolution.
Compounds of the present technology were tested for growth inhibition of N. fowleri per General Procedure 13, above.

[1] = ATCC30215, N. fowleri Nf69 trophozoites, 48 h culture, 37° C., CellTiter Glo luminescence

EC50 [1]	Structure (SMILES)	EC50 (ATCC30215, 48 h)
1 to 10 µM	O=c1c2cc(Cl)c(Cl)cc2nc2n1CC[C@@H]1[C@@H]2CCCN1Cc1ccccn1 (racemic) [trans-7o, (±)-(4aR,13bS)-10,11-dichloro-4-(pyridin-2-ylmethyl)-1,2,3,4,4a,5,6,13b-octahydro-8H-[1,6]naphthyridino[5,6-b]quinazolin-8-one]	
> 10 µM	CC(C)(C)C(=O)N1CCC[C@@H]2c3nc4cc(Cl)c(Cl)cc4c(=O)n3CC[C@H]21 (racemic) [trans-7d, (±)-(4aR,13bS)-10,11-dichloro-4-pivaloyl-1,2,3,4,4a,5,6,13b-octahydro-8H-[1,6]naphthyridino[5,6-b]quinazolin-8-one]	
0.1 to 1 µM	CN(C)CCN1CCC[C@@H]2c3nc4cc(Cl)c(Cl)cc4c(=O)n3CC[C@H]21 (racemic) [trans-7oo, (±)-(4aR,13bS)-10,11-dichloro-4-(2-(dimethylamino)ethyl)-1,2,3,4,4a,5,6,13b-octahydro-8H-[1,6]naphthyridino[5,6-b]quinazolin-8-one]	
0.1 to 1 µM	COc1cc2nc3n(c(=O)c2cc1Cl)CC[C@@H]1[C@@H]3CCCN1Cc1cccnc1 (racemic) [trans-7ii, (±)-(4aR,13bS)-10-chloro-11-methoxy-4-(pyridin-3-ylmethyl)-1,2,3,4,4a,5,6,13b-octahydro-8H-[1,6]naphthyridino[5,6-b]quinazolin-8-one]	
0.0001 to 0.1 µM	COc1cc2nc3n(c(=O)c2cc1Cl)CC[C@H]1[C@H]3CCCN1CC1COC1 (single isomer, unassigned) [trans-10j-ent-2]	
0.1 to 1 µM	O=c1c2cc(Cl)c(Cl)cc2nc2n1CC[C@@H]1[C@@H]2CCCN1Cc1ccccc1 (racemic) [trans-7w, (±)-(4aR,13bS)-4-benzyl-10,11-dichloro-1,2,3,4,4a,5,6,13b-octahydro-8H-[1,6]naphthyridino[5,6-b]quinazolin-8-one]	
0.1 to 1 µM	CN(C)C(=O)CN1CCC[C@@H]2c3nc4cc(Cl)c(Cl)cc4c(=O)n3CC[C@H]21 (racemic) [trans-7c, (±)-2-((4aR,13bS)-10,11-dichloro-8-oxo-2,3,5,6,8,13b-hexahydro-1H-[1,6]naphthyridino[5,6-b]quinazolin-4(4aH)-yl)-N,N-dimethylacetamide]	
0.1 to 1 µM	COc1cc2nc3n(c(=O)c2cc1Cl)CC[C@@H]1[C@@H]3CCCN1CC1COC1 (single isomer, unassigned) [trans-10i-ent-1]	
0.0001 to 0.1 µM	COCCN1CCC[C@@H]2c3nc4cc(Cl)c(Cl)cc4c(=O)n3CC[C@H]21 (racemic) [trans-7i, (±)-(4aR,13bS)-10,11-dichloro-4-(2-methoxyethyl)-1,2,3,4,4a,5,6,13b-octahydro-8H-[1,6]naphthyridino[5,6-b]quinazolin-8-one]	
0.0001 to 0.1 µM	CC(C)CN1CCC[C@@H]2c3nc4cc(Cl)c(Cl)cc4c(=O)n3CC[C@H]21 (racemic) [trans-7l, (±)-(4aR,13bS)-10,11-dichloro-4-isobutyl-1,2,3,4,4a,5,6,13b-octahydro-8H-[1,6]naphthyridino[5,6-b]quinazolin-8-one]	

Continued, compound first:

Structure (SMILES)	EC50 [1]	EC50 (ATCC30215, 48 h)
COc1cccc2c(=O)n3c(nc12)[C@@H]1CCN(C)[C@@H]1CC3 (racemic) [cis-5dd, (±)-(3aR,12bR)-11-methoxy-3-methyl-2,3,3a,4,5,12b-hexahydropyrrolo[3′,2′:3,4]pyrido[2,1-b]quinazolin-7(1H)-one]	> 10 µM	
Cc1ccc(-c2ccc3nc4n(c(=O)c3c2)CC[C@@H]2[C@H]4CCCN2C)cn1 (racemic) [cis-9a]	> 10 µM	
CN1CCO[C@@H]2c3nc4ccccc4c(=O)n3CC[C@H]21 (racemic) [trans-5v, (±)-(4aR,13bS)-4-methyl-3,4,4a,5,6,13b-hexahydro-[1,4]oxazino[2′,3′:3,4]pyrido[2,1-b]quinazolin-8(2H)-one]	> 10 µM	
Cn1c([C@@H]2CCCN(Cc3cnccn3)C2)nc2cc(Cl)c(Cl)cc2c1=O [Compound R-14x, (R)-6,7-dichloro-3-methyl-2-(1-(pyrazin-2-ylmethyl)piperidin-3-yl)quinazolin-4(3H)-one]	> 10 µM	
Cn1c([C@@H]2CCCN(CC3COC3)C2)nc2cc(Cl)c(Cl)cc2c1=O [Compound R-14f, (R)-6,7-dichloro-3-methyl-2-(1-(oxetan-3-ylmethyl)piperidin-3-yl)quinazolin-4(3H)-one]	0.1 to 1 µM	
O=c1c2cc(Cl)c(Cl)cc2nc2n1CC[C@H]1NCCC[C@H]21 (racemic) [trans-6b, (±)-(4aR,13bS)-10,11-dichloro-1,2,3,4,4a,5,6,13b-octahydro-8H-[1,6]naphthyridino[5,6-b]quinazolin-8-one]	1 to 10 µM	
CN1CCC[C@@H]2c3nc4ccc(C(F)(F)F)cc4c(=O)n3CC[C@H]21 [trans-10c-ent-1, (4aR,13bS)-4-methyl-10-(trifluoromethyl)-1,2,3,4,4a,5,6,13b-octahydro-8H-[1,6]naphthyridino[5,6-b]quinazolin-8-one]	0.1 to 1 µM	
CN1CCN(C)[C@H]2c3nc4ccccc4c(=O)n3CC[C@H]21 (racemic) [cis-5y, (±)-(4aR,13bR)-1,4-dimethyl-1,2,3,4,4a,5,6,13b-octahydro-8H-pyrazino[2′,3′:3,4]pyrido[2,1-b]quinazolin-8-one]	> 10 µM	
Cn1c([C@@H]2CCCN(Cc3cccnc3)C2)nc2cc(Cl)c(Cl)cc2c1=O [Compound R-14v, (R)-6,7-dichloro-3-methyl-2-(1-(pyridin-3-ylmethyl)piperidin-3-yl)quinazolin-4(3H)-one]	> 10 µM	
Cc1cccc2nc3n(c(=O)c12)CC[C@@H]1[C@@H]3CCCN1C (racemic) [trans-5b, (±)-(4aR,13bS)-4,9-dimethyl-1,2,3,4,4a,5,6,13b-octahydro-8H-[1,6]naphthyridino[5,6-b]quinazolin-8-one]	> 10 µM	
O=c1c2cc(Cl)ccc2nc2n1CC[C@H]1NCCC[C@H]21 (racemic) [trans-6a, (±)-(4aR,13bS)-10-chloro-1,2,3,4,4a,5,6,13b-octahydro-8H-[1,6]naphthyridino[5,6-b]quinazolin-8-one]	1 to 10 µM	
CN1CC[C@H]2c3nc4ccccc4c(=O)n3CC[C@H]21 (racemic) [cis-5cc, (±)-(3aR,12bR)-3-methyl-2,3,3a,4,5,12b-hexahydropyrrolo[3′,2′:3,4]pyrido[2,1-b]quinazolin-7(1H)-one]	> 10 µM	
CN1CCC[C@@H]2c3nc4ccc(Cl)cc4c(=O)n3CC[C@H]21 [trans-10a-ent 1, (4aR,13bS)-10-chloro-4-methyl-1,2,3,4,4a,5,6,13b-octahydro-8H-[1,6]naphthyridino[5,6-b]quinazolin-8-one]	0.1 to 1 µM	
CN1CCC[C@@H]2c3nc4ccc(C#N)cc4c(=O)n3CC[C@H]21 (racemic) [trans-5i, (±)-(4aR,13bS)-4-methyl-8-oxo-2,3,4,4a,5,6,8,13b-octahydro-1H-[1,6]naphthyridino[5,6-b]quinazoline-10-carbonitrile]	0.1 to 1 µM	
Cn1c([C@@H]2CCCN(CCN3CCOCC3)C2)nc2cc(Cl)c(Cl)cc2c1=O [Compound R-14bb, (R)-6,7-dichloro-3-methyl-2-(1-(2-morpholinoethyl)piperidin-3-yl)quinazolin-4(3H)-one]	1 to 10 µM	
CN1CCC[C@@H]2c3nc4cc(Br)ccc4c(=O)n3CC[C@H]21 (racemic) [trans-5l, (±)-(4aR,13bS)-11-bromo-4-methyl-1,2,3,4,4a,5,6,13b-octahydro-8H-[1,6]naphthyridino[5,6-b]quinazolin-8-one]	1 to 10 µM	
CN1CCC[C@H]2c3nc4ccc(C(F)(F)F)cc4c(=O)n3CC[C@@H]21 [trans-10d-ent-2, (4aS,13bR)-4-methyl-10-(trifluoromethyl)-1,2,3,4,4a,5,6,13b-octahydro-8H-[1,6]naphthyridino[5,6-b]quinazolin-8-one]		1 to 10 µM
COc1cc(Cl)cc2c(=O)n3c(nc12)[C@@H]1CCCN(C)[C@@H]1CC3 (racemic) [cis-5t, (±)-(4aR,13bR)-10-chloro-12-methoxy-4-methyl-1,2,3,4,4a,5,6,13b-octahydro-8H-[1,6]naphthyridino[5,6-b]quinazolin-8-one]	> 10 µM	
O=c1c2cc(Cl)c(Cl)cc2nc2n1CC[C@@H]1[C@@H]2CCCN1Cc1ccc(Cl)cc1 (racemic) [Compound 7t, (±)-(4aR,13bS)-10,11-dichloro-4-(4-chlorobenzyl)-1,2,3,4,4a,5,6,13b-octahydro-8H-[1,6]naphthyridino[5,6-b]quinazolin-8-one]	> 10 µM	
CN1CCC[C@H]2c3nc4ccc(Cl)cc4c(=O)n3CC[C@@H]21 [trans-10b-ent-2, (4aS,13bR)-10-chloro-4-methyl-1,2,3,4,4a,5,6,13b-octahydro-8H-[1,6]naphthyridino[5,6-b]quinazolin-8-one]		1 to 10 µM
COc1cc2nc3n(c(=O)c2cc1Cl)CC[C@@H]1[C@@H]3CCCN1C (racemic) [trans-5gg, (±)-(4aR,13bS)-10-chloro-11-methoxy-4-methyl-1,2,3,4,4a,5,6,13b-octahydro-8H-[1,6]naphthyridino[5,6-b]quinazolin-8-one]	0.1 to 1 µM	
CN1CCC[C@@H]2c3nc4ccc(Br)cc4c(=O)n3CC[C@H]21 (racemic) [trans-5e, (±)-(4aR,13bS)-10-bromo-4-methyl-1,2,3,4,4a,5,6,13b-octahydro-8H-[1,6]naphthyridino[5,6-b]quinazolin-8-one]	1 to 10 µM	
